Where “and” joins values, the source holds several entries; their conditions need not be identical. Identical values can stand only once.
System: patients with solid cancer
Experiment: Phase 1 clinical trial of JPH203 in patients with solid cancer (safety/DLT and efficacy)
Format: in vivo, human
Conditions: for Effective case: single dose then once daily for 7 consecutive days per cycle; for DLT (dose limiting toxicity): between single administration and test at end of cycle 1
Protocol: The injection is a lyophilized formulation and contains 50 mg of JPH203 and 1200 mg of sulfobutyl ether-β-cyclodextrin in one vial.
Phase 1 Clinical Trial of JPH203 in Patients with Solid Cancer
This clinical trial involved patients with solid cancer. The object of this clinical trial was to evaluate the safety (dose limiting toxicity: DLT) and efficacy of JPH203.
The patient's primary inclusion criteria and exclusion criteria are as follows:
• Patients in advanced stage, who have been confirmed to have solid cancer and who are refractory or intolerant to standard therapy • Patients whose biopsies or pre-existing tissues are available for LAT1 antibody staining • Patients who can be expected to survive 90 days or more from the date of enrollment Exclusion Criteria • Patients with serious or clinically problematic anamnesis or complications • Patients who received chemotherapy, radiation therapy, immunotherapy, or other therapies aimed at tumor shrinkage effect within 4 weeks prior to study drug administration
The dosing schedule is as follows:
On Day 1, a predetermined dosage was administered in a single dose. The dosage was 12 mg/m^2 (4 cases), 25 mg/m^2 (3 cases), 40 mg/m^2 (3 cases), 60 mg/m^2 (6 cases), or 85 mg/m^2 (1 case). One case of the 12 mg/m^2 dosage group was discontinued after only a single dose due to disease progression.
Cycle 1 was started 8 days or more after the single administration, and the injection was administered once daily for 7 consecutive days. Tests including CT were performed on days 28 to 31 from the start date of cycle 1 administration.
Within 28 days of the test day of the previous cycle, the next cycle was started and the injection was administered once daily for 7 consecutive days. Tests were performed on days 28 to 31 from the start date of administration.
DLT was the following symptoms occurring between the single administration and the test at the end of cycle 1 (from the start of cycle 1 to day 28) and for which the investigator (subinvestigator) determined that the relationship with the study drug could not be denied (“related,” “probably related,” “possibly related,” or “unlikely related”). However, the final determination of DLT was made in consultation between the investigator and the sponsor. If necessary, advice from the Data and Safety Monitoring Board was sought upon determining DLT. • 1) Non-hematologic toxicity of grade 3 or more for which the investigator (subinvestigator) determines that it is difficult to continue the administration of the study drug (except for acneform rash, maculo-papular rash, or urticaria of grade 3, and nausea, vomiting, inappetence, diarrhea, constipation, or fatigue that recovers to grade 1 by symptomatic therapy within 7 days after the occurrence) • 2) Hematotoxicity of grade 4 or more or thrombocytopenia of grade 3 or more requiring blood transfusion • 3) Febrile neutropenia
It should be noted that PD (progression) is when the sum of diameters of the target lesion is increased by 20% or more and the absolute value of sum diameters is increased by 5 mm or more compared to the smallest sum diameters measured at or after the baseline.

Compound: Nc1cc(COc2c(Cl)cc(C[C@H](N)C(=O)O)cc2Cl)c2oc(-c3ccccc3)nc2c1 [JPH203, O-(5-amino-2-phenylbenzoxazol-7-yl)methyl-3,5-dichloro-L-tyrosine]
- cases of no change in tumor size (stable: SD) (12 mg/m^2 dosage group): 1 case
- cases of tumor size reduction of 30% or more (partial response: PR) (12 mg/m^2 dosage group): One
- cases of no change in tumor size (stable: SD) (25 mg/m^2 dosage group): 1 case
- cases of no change in tumor size (stable: SD) (40 mg/m^2 dosage group): 1 case
- AST/ALT increase of grade 3 (DLT) (60 mg/m^2 dosage group): observed
- cases of no change in tumor size (stable: SD) (60 mg/m^2 dosage group): 1 case
- AST/ALT increase of grade 3 (DLT) (85 mg/m^2 dosage group): observed
- Effective case (dosage 12 mg/m^2, injection): 2/3
- DLT (dose limiting toxicity) (dosage 12 mg/m^2): No
- Effective case (dosage 25 mg/m^2, injection): 1/3
- DLT (dose limiting toxicity) (dosage 25 mg/m^2): No
- Effective case (dosage 40 mg/m^2, injection): 1/3
- DLT (dose limiting toxicity) (dosage 40 mg/m^2): No
- Effective case (dosage 60 mg/m^2, injection): 1/6
- DLT (dose limiting toxicity) (dosage 60 mg/m^2): Yes
- Effective case (dosage 85 mg/m^2, injection): 0/1
- DLT (dose limiting toxicity) (dosage 85 mg/m^2): Yes
- cases with significant shrinkage effect in lymph node metastatic lesions (lymph node metastatic lesions, all dosage groups): 3 out of 7
- survival prolonging effects by cancer type (Swimmer plot, FIG. 2) (months of survival for each subject): exhibits survival prolonging effects on bile duct cancer, colorectal cancer, and pancreatic cancer
- shrinkage of lymph node metastatic lesions (individual cases) (the 3 responding cases out of 7): 55% and 69.4% and 80%
- tumor shrinkage effects by cancer type (Waterfall plot, FIG. 1) (tumor shrinkage ratio for each subject): exhibits tumor shrinkage effects on bile duct cancer, colorectal cancer, esophageal cancer, and breast cancer

— patent publication US12458628B2, “Cancer therapeutic” (J-Pharma Co., Ltd., priority 2017, dated 2025)
